According to patent US20180228124A1, “ANIMAL LITTER COMPRISING CINNAMIC AND/OR ROSMARINIC COMPOUNDS” (The Clorox Company, priority 2017, published 2018):

System: ammonia formation
Assay: Ammonia formation in sodium bentonite clay litter contacted with feline urine, monitored daily
Conditions: for ammonia at day 11 / inhibition of ammonia formation: FIG. 2; for Day 11 NH3 PPM (mean): treatment dosed at 0.5 g per 100 g of litter, FIG. 3 / FIG. 4 data; for ammonia formation versus virgin clay litter control: 0.5 g per 100 g of litter, FIG. 3; for inhibition of ammonia formation: 0.02 g per 100 g of litter (0.02% by weight)
Protocol: The efficacy of various anti-oxidant rich spices was tested for ability to inhibit ammonia growth in litter compositions. FIG. 1 illustrates the results for each test that was performed. Each litter substrate included sodium bentonite clay. A control included virgin clay, with no added spice. Each of the other samples tested included a particular spice, dosed onto or into the clay litter substrate at 1.5 g per 100 g of clay substrate (a 1.5% loading of each of the tested spices). The tested spices were cinnamon, peppermint, rosemary, rubbing sage, spearmint, star anise, sumac, thyme, and turmeric. A control was also tested that included no spice at all. Each sample was contacted with 20 mL of feline urine, and then monitored over a period of 11 days, with the mean PPM of ammonia recorded for each day.
Each of the treatments tested in FIG. 3 were dosed at 0.5 g per 100 g of litter. Many of the other treatments tested were similarly dosed, unless stated otherwise (i.e., 0.5 g per 100 g of litter).

Q: Which results are given for `O=C(O)/C=C/c1ccc(O)c(O)c1` [Caffeic acid, Caffeic Acid]?
A: ammonia at day 11 (0.5% caffeic acid (0.5 g per 100 g of litter)): less than 60 ppm; ammonia at day 11 (1% caffeic acid (1 g per 100 g of litter)): less than 40 ppm; Day 11 NH3 PPM (mean): 47.894 PPM

Q: Which “Day 11 NH3 PPM (mean)” value does the source give for `O=C/C=C/c1ccccc1` [Cinnamaldehyde] here?
A: 4.150 PPM

Q: Which “ammonia formation versus virgin clay litter control” value does the source give for `CCOC(=O)/C=C/c1ccccc1` [Ethyl cinnamate, Ethyl Cinnamate, reference compound] here?
A: promotes ammonia (odor) formation

Q: And the “Day 11 NH3 PPM (mean)” value?
A: 126.324 PPM

Q: How did the “Day 11 NH3 PPM (mean)” value turn out when `COc1cc(/C=C/C(=O)O)ccc1O` [Ferulic acid, Ferulic Acid] was run?
A: 62.182 PPM

Q: Which “Day 11 NH3 PPM (mean)” value does the source give for `O=C(O)CCc1ccccc1` [Hydrocinnamic acid] here?
A: 45.720 PPM

Q: With `O=C(/C=C/c1ccc(O)c(O)c1)O[C@H](Cc1ccc(O)c(O)c1)C(=O)O` [Rosmarinic acid, Rosmarinic Acid] as the compound, how does the “efficacy of odor inhibition compared with 0.44% borate treated litter” value (0.5% rosmarinic acid, FIG. 4) read?
A: comparable in efficacy to the borate treated litter substrate

Q: What about the “Day 11 NH3 PPM (mean)” value of the same compound?
A: 20-30 PPM

Q: How did the “Day 11 NH3 PPM (mean)” value turn out when `COc1cc(/C=C/C(=O)O)cc(OC)c1O` [Sinapic acid, Sinapic Acid] was run?
A: 38.428 PPM

Q: With `O=C(O)/C=C/c1ccccc1` [Trans-cinnamic acid, Trans-Cinnamic Acid] as the compound, how does the “Day 11 NH3 PPM (mean)” value read?
A: 4.493 PPM

Q: Which “ammonia formation versus virgin clay litter control” value does the source give for `O.O.O.O.O.O.O.O.O.O.O.O.O=S(=O)([O-])[O-].O=S(=O)([O-])[O-].[Al+3].[K+]` [alum, hydrated potassium aluminum sulfate, reference compound] here?
A: better than the virgin clay litter control

Q: How did the “inhibition of ammonia formation” value turn out when `CC(C)c1cc2c(c(O)c1O)[C@@]1(C(=O)O)CCCC(C)(C)[C@@H]1CC2` [carnosic acid, Carnosic Acid] was run?
A: significant inhibition of ammonia formation

Q: How did the “Day 11 NH3 PPM (mean)” value turn out when `O=C(O)/C=C/c1ccc(O)cc1` [p-coumaric acid, p-Coumaric Acid] was run?
A: 26.199 PPM

Q: With `CC(O)C(=O)[O-].[Ag+]` (stereo not shown) [silver lactate, reference compound] as the compound, how does the “ammonia formation versus virgin clay litter control” value read?
A: better than the virgin clay litter control

Q: Which “ammonia formation versus virgin clay litter control” value does the source give for `O=C([O-])[O-].O=C([O-])[O-].OO.OO.OO.[Na+].[Na+].[Na+].[Na+]` [sodium percarbonate, reference compound] here?
A: better than the virgin clay litter control

Q: With `C[C@H]1[C@H](C)CC[C@]2(C(=O)O)CC[C@]3(C)C(=CC[C@@H]4[C@@]5(C)CC[C@H](O)C(C)(C)[C@@H]5CC[C@]43C)[C@H]12` [ursolic acid, Ursolic Acid] as the compound, how does the “inhibition of ammonia formation” value read?
A: significant inhibition of ammonia formation

Q: borate [reference compound] was tested. Which “ammonia at day 11” value (litter substrate treated with 0.44% borate) did it give?
A: 76 ppm
